Source: patent US8343983B2, “Substituted pyrazolo-pyrimidine compounds” (ArQule, Inc., priority 2009, dated 2013)
Like-named read-outs stand apart in the source and are kept apart here.

Tested on: cancer cells
Assay: MTS assay: inhibition of cell growth (formazan absorbance at 492 nm after 72 hours with test compound)
Assay type: cell-based
Details: inhibition class
How it was run: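 DMEM with 1% FBS; cells seeded at 3000/well and grown 18 h at 37 °C, then exposed to compound for 72 h and to MTS/PMS for 4 h. IC50 is the concentration giving a 50% absorbance drop; grades are % inhibition bands.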

[1] = Homo sapiens, DLD-1 cells, read-out: DLD-1, MTS 72 hours at 10 uM
[2] = Homo sapiens, KATO III cells, read-out: KATO III, MTS 72 hours at 10 uM
[3] = Homo sapiens, MDA-MB-231 cells, read-out: MDA-MB-231, MTS 72 hours at 10 uM
[4] = Homo sapiens, NCI-H1299 cells, read-out: NCI-H1299, MTS 72 hours at 10 uM
[5] = Homo sapiens, PC-3 cells, read-out: PC-3, MTS 72 hours at 10 uM
[6] = PACA-2 cells, read-out: PACA-2, MTS 72 hours at 10 uM

Row | Structure (SMILES) | inhibition at 10 µM [1] [%] | inhibition at 10 µM [2] [%] | inhibition at 10 µM [3] [%] | inhibition at 10 µM [4] [%] | inhibition at 10 µM [5] [%] | inhibition at 10 µM [6] [%]
1 | C1CCC(Nc2nc3c4c(n[nH]c4n2)CCN3)CC1 [Compound 123, N-cyclohexyl-2,6,7,8-tetrahydro-1,2,3,5,6-pentaazaacenaphthylen-4-amine] | < 50 | < 50 | < 50 | < 50 | < 50 | < 50
2 | COc1ccc(CN2CCCc3n[nH]c4nc(NCCc5ccc(F)cc5)nc2c34)cc1 [Compound 248, N-[2-(4-fluorophenyl)ethyl]-6-(4-methoxybenzyl)-6,7,8,9-tetrahydro-2H-1,2,3,5,6-pentaazabenzo[cd]azulen-4-amine] | > 79 | > 79 | > 79 | > 79 | > 79 | > 79
3 | c1ccc(CN2CCc3n[nH]c4nc(NCC5CCCCC5)nc2c34)cc1 [Compound 55, 6-benzyl-N-(cyclohexylmethyl)-2,6,7,8-tetrahydro-1,2,3,5,6-pentaazaacenaphthylen-4-amine] | > 79 | > 79 | > 79 | 50 to 79 | < 50 | < 50
4 | c1ccc(CN2CCc3n[nH]c4nc(NCCc5cccnc5)nc2c34)cc1 [Compound 30, 6-benzyl-N-(2-pyridin-3-ylethyl)-2,6,7,8-tetrahydro-1,2,3,5,6-pentaazaacenaphthylen-4-amine] | 50 to 79 | 50 to 79 | 50 to 79 | < 50 | < 50 | < 50
5 | Brc1ccc(CCNc2nc3c4c(n[nH]c4n2)CCN3Cc2ccccc2)cc1 [Compound 97, 6-benzyl-N-[2-(4-bromophenyl)ethyl]-2,6,7,8-tetrahydro-1,2,3,5,6-pentaazaacenaphthylen-4-amine] | 50 to 79 | < 50 | < 50 | 50 to 79 | < 50 | < 50
6 | COc1cc(CNc2nc3c4c(n[nH]c4n2)CCN3Cc2ccccc2)cc(OC)c1OC [Compound 50, 6-benzyl-N-(3,4,5-trimethoxybenzyl)-2,6,7,8-tetrahydro-1,2,3,5,6-pentaazaacenaphthylen-4-amine] | < 50 | < 50 | < 50 | < 50 | < 50 | < 50
7 | c1cc(N2CCN(c3nc4c5c(n[nH]c5n3)CCN4)CC2)ccn1 [Compound 122, 4-(4-pyridin-4-ylpiperazin-1-yl)-2,6,7,8-tetrahydro-1,2,3,5,6-pentaazaacenaphthylene] | < 50 | < 50 | < 50 | < 50 | < 50 | < 50
8 | c1ccc(CN2CCc3n[nH]c4nc(NCCN5CCOCC5)nc2c34)cc1 [Compound 57, 6-benzyl-N-(2-morpholin-4-ylethyl)-2,6,7,8-tetrahydro-1,2,3,5,6-pentaazaacenaphthylen-4-amine] | > 79 | > 79 | > 79 | 50 to 79 | > 79 | > 79
9 | COc1ccc(CN2CCCc3n[nH]c4nc(NCCN5CCOCC5)nc2c34)cc1 [Compound 249, 6-(4-methoxybenzyl)-N-(2-morpholin-4-ylethyl)-6,7,8,9-tetrahydro-2H-1,2,3,5,6-pentaazabenzo[cd]azulen-4-amine] | < 50 | < 50 | < 50 | < 50 | < 50 | < 50
10 | c1ccc(N2CCc3n[nH]c4nc(N5CCOCC5)nc2c34)cc1 [Compound 218, 4-morpholin-4-yl-6-phenyl-2,6,7,8-tetrahydro-1,2,3,5,6-pentaazaacenaphthylene] | < 50 | < 50 | < 50 | < 50 | < 50 | < 50
11 | c1ccc(CNc2nc3c4c(n[nH]c4n2)CCN3)cc1 [Compound 101, N-benzyl-2,6,7,8-tetrahydro-1,2,3,5,6-pentaazaacenaphthylen-4-amine] | 50 to 79 | < 50 | < 50 | < 50 | 50 to 79 | > 79
12 | c1cncc(CNc2nc3c4c(n[nH]c4n2)CCN3)c1 [Compound 121, N-(pyridin-3-ylmethyl)-2,6,7,8-tetrahydro-1,2,3,5,6-pentaazaacenaphthylen-4-amine] | < 50 | < 50 | < 50 | < 50 | < 50 | < 50
13 | c1ccc(CNc2nc3c4c(n[nH]c4n2)CCN3c2ccccc2)cc1 [Compound 208, N-benzyl-6-phenyl-2,6,7,8-tetrahydro-1,2,3,5,6-pentaazaacenaphthylen-4-amine] | < 50 | < 50 | < 50 | < 50 | < 50 | < 50
14 | CN(C)CCCNc1nc2c3c(n[nH]c3n1)CCN2Cc1ccccc1 [Compound 91, N′-(6-benzyl-2,6,7,8-tetrahydro-1,2,3,5,6-pentaazaacenaphthylen-4-yl)-N,N-dimethylpropane-1,3-diamine] | 50 to 79 | > 79 | > 79 | < 50 | > 79 | < 50
15 | COc1cccc(CCNc2nc3c4c(n[nH]c4n2)C(C(=O)NCc2ccccc2)CN3Cc2ccccc2)c1 (stereo not drawn) [Compound 224, N,6-dibenzyl-4-{[2-(3-methoxyphenyl)ethyl]amino}-2,6,7,8-tetrahydro-1,2,3,5,6-pentaazaacenaphthylene-8-carboxamide] | < 50 | < 50 | < 50 | < 50 | < 50 | < 50
16 | c1ccc(CN2CCc3n[nH]c4nc(N5CCN6CCCC6C5)nc2c34)cc1 (stereo not drawn) [Compound 42, 6-benzyl-4-(hexahydropyrrolo[1,2-a]pyrazin-2(1H)-yl)-2,6,7,8-tetrahydro-1,2,3,5,6-pentaazaacenaphthylene] | < 50 | < 50 | < 50 | < 50 | < 50 | < 50
17 | CN1CCC(Nc2nc3c4c(n[nH]c4n2)CCN3)CC1 [Compound 126, N-(1-methylpiperidin-4-yl)-2,6,7,8-tetrahydro-1,2,3,5,6-pentaazaacenaphthylen-4-amine] | < 50 | < 50 | < 50 | < 50 | < 50 | < 50
18 | c1ccc(CCNc2nc3c4c(n[nH]c4n2)CCN3c2ccccc2)cc1 [Compound 220, 6-phenyl-N-(2-phenylethyl)-2,6,7,8-tetrahydro-1,2,3,5,6-pentaazaacenaphthylen-4-amine] | > 79 | > 79 | 50 to 79 | 50 to 79 | 50 to 79 | > 79
19 | c1ccc(CN2CCc3n[nH]c4nc(N5CCCCC5)nc2c34)cc1 [Compound 76, 6-benzyl-4-piperidin-1-yl-2,6,7,8-tetrahydro-1,2,3,5,6-pentaazaacenaphthylene] | < 50 | < 50 | < 50 | < 50 | < 50 | < 50
20 | c1ccc(N2CCc3n[nH]c4nc(NCCN5CCOCC5)nc2c34)cc1 [Compound 215, N-(2-morpholin-4-ylethyl)-6-phenyl-2,6,7,8-tetrahydro-1,2,3,5,6-pentaazaacenaphthylen-4-amine] | < 50 | < 50 | < 50 | < 50 | < 50 | < 50
21 | CC(=O)NCCNc1nc2c3c(n[nH]c3n1)CCN2Cc1ccccc1 [Compound 68, N-{2-[(6-benzyl-2,6,7,8-tetrahydro-1,2,3,5,6-pentaazaacenaphthylen-4-yl)amino]ethyl}acetamide] | < 50 | < 50 | < 50 | < 50 | < 50 | < 50
22 | COc1ccccc1CCNc1nc2c3c(n[nH]c3n1)CCN2Cc1ccccc1 [Compound 48, 6-benzyl-N-[2-(2-methoxyphenyl)ethyl]-2,6,7,8-tetrahydro-1,2,3,5,6-pentaazaacenaphthylen-4-amine] | < 50 | < 50 | 50 to 79 | < 50 | < 50 | < 50
23 | Cc1cccc(CCNc2nc3c4c(n[nH]c4n2)CCN3Cc2ccccc2)c1 [Compound 77, 6-benzyl-N-[2-(3-methylphenyl)ethyl]-2,6,7,8-tetrahydro-1,2,3,5,6-pentaazaacenaphthylen-4-amine] | < 50 | < 50 | < 50 | 50 to 79 | < 50 | < 50
